Experimental data from patent US12398118B2, “Rho-associated protein kinase inhibitor, pharmaceutical composition comprising same, and use thereof” (BEIJING TIDE PHARMACEUTICAL CO., LTD., priority 2018, dated 2025).

Legend:
ROCK1 = ROCK1 (Homo sapiens (Human), UniProt Q13464); assay: ROCK1 kinase IC50, biological test method similar to ROCK2 assay; type: biochemical
Method: (§1) The kinase IC50 was determined by a commercialized CISBIO kinase detection kit, HTRF KinEASE-STK S2 kit (62ST2PEC). ROCK2 (01-119) employed in the reaction was purchased from Carna Biosciences.
(§2) Before the assay, the following working solutions as needed were formulated with corresponding reagents according to the instruction of the kinase detection kit: 1×kinase buffer, 5×STK-S2 substrate working solution (1.5 μM) and 5×ATP working solution (1.5 μM), 5×ROCK2 kinase working solution, 4×Streptavidin-XL665 working solution, and 4×STK-Ab-Cryptate 2 detection solution. Then the assay was performed according to the following procedure.
(§3) A solution of a compound at a concentration of 10000 nM was prepared with the 1×kinase buffer containing 2.5% DMSO. Gradient dilution of the solution of the compound was performed with the kinase buffer containing DMSO, so as to obtain solutions of a test compound at 9 different concentrations. In addition to wells of test compounds, a positive well (containing all the reagents except the compound) and a negative well (containing all the reagents except the test compound and kinase) were set. Except for the control wells (positive and negative wells), a solution of a test compound (4 μL) was added to each of the reaction wells, and a solution of 2.5% DMSO was added to the control wells. Then the substrate (2 μM, i.e., 2 μL 5×STK-S2 substrate working solution) was added to each of the reaction wells. The 5×ROCK2 kinase working solution (2 μL, containing 1.4 ng ROCK2 kinase) was added to each of the reaction wells except for the negative well, the volume of which was made up with the 1×kinase buffer (2 μL). The 5×ATP working solution (2 μL) was added to each of the reaction wells, and the mixtures were incubated at room temperature for 2 hours. After the kinase reaction was complete, the 4×Streptavidin-XL665 working solution was added to each of the reaction wells, the solutions were mixed, followed by immediate addition of the 4×STK-Ab-Cryptate 2 detection solution (5 μL), and the mixtures were incubated at room temperature for 1 hour. The fluorescence signal was read on ENVISION (Perkinelmer) (excitation wavelength: 320 inn, and emission wavelength: 665 nm and 615 nm). The inhibitory rate in each well was calculated based on the fluorescence intensity value: ER (Emission Ratio)_(fluorescence intensity at 665 nm/fluorescence intensity at 615 nm); inhibitory rate=(ERpositive−ERtest compound)/(ERpositive−ERnegative)*100%. Curves were plotted and fitted to obtain the median inhibitory concentration (IC50) of each teat compound with the PRISM 5.0 software. According to a biological test method similar to the above, the IC50 values of the compounds on ROCK1 were also tested.

ROCK2 = ROCK2 (Homo sapiens, UniProt O75116); assay: ROCK2 kinase IC50, HTRF KinEASE-STK S2 kit; type: biochemical; conditions: 2 hours at room temperature
Method: as §1, §2, §3

ROCK1, sequence (Q13464 whole entry, species assumed): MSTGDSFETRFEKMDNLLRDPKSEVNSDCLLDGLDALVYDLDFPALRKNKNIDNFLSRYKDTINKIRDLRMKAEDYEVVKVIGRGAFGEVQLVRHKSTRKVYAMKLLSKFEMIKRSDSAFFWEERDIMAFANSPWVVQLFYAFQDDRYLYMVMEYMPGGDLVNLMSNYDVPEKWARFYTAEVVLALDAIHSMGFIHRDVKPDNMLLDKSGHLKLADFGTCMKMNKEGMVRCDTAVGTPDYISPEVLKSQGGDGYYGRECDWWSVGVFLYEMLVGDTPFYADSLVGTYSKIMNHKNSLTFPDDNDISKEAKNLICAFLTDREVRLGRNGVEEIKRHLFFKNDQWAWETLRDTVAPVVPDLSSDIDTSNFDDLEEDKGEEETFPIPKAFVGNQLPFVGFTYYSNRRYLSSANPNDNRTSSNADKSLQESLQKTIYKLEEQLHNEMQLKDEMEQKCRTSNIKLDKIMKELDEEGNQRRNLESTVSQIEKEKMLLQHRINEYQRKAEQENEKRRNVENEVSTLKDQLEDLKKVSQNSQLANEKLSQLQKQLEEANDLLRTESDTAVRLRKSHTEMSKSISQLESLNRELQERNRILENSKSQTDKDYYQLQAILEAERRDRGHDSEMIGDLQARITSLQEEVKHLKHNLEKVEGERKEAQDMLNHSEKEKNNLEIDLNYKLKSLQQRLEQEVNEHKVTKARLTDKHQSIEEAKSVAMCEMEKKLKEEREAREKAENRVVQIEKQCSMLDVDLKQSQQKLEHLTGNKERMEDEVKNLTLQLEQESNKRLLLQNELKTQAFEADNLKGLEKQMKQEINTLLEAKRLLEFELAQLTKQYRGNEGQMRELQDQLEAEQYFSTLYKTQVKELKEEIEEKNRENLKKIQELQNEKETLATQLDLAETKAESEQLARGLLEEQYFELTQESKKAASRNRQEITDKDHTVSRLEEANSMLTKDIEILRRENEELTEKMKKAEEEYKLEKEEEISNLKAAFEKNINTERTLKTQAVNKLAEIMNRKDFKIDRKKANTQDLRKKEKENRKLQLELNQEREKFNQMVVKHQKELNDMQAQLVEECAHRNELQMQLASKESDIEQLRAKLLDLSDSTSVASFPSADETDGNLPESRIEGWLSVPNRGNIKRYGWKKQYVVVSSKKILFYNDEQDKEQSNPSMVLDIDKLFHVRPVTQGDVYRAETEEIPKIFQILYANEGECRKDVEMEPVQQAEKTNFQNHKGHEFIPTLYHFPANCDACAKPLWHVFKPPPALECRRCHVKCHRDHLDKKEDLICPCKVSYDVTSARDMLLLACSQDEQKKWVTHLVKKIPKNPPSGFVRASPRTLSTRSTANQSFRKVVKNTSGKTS
ROCK2, sequence (O75116 whole entry, looked up): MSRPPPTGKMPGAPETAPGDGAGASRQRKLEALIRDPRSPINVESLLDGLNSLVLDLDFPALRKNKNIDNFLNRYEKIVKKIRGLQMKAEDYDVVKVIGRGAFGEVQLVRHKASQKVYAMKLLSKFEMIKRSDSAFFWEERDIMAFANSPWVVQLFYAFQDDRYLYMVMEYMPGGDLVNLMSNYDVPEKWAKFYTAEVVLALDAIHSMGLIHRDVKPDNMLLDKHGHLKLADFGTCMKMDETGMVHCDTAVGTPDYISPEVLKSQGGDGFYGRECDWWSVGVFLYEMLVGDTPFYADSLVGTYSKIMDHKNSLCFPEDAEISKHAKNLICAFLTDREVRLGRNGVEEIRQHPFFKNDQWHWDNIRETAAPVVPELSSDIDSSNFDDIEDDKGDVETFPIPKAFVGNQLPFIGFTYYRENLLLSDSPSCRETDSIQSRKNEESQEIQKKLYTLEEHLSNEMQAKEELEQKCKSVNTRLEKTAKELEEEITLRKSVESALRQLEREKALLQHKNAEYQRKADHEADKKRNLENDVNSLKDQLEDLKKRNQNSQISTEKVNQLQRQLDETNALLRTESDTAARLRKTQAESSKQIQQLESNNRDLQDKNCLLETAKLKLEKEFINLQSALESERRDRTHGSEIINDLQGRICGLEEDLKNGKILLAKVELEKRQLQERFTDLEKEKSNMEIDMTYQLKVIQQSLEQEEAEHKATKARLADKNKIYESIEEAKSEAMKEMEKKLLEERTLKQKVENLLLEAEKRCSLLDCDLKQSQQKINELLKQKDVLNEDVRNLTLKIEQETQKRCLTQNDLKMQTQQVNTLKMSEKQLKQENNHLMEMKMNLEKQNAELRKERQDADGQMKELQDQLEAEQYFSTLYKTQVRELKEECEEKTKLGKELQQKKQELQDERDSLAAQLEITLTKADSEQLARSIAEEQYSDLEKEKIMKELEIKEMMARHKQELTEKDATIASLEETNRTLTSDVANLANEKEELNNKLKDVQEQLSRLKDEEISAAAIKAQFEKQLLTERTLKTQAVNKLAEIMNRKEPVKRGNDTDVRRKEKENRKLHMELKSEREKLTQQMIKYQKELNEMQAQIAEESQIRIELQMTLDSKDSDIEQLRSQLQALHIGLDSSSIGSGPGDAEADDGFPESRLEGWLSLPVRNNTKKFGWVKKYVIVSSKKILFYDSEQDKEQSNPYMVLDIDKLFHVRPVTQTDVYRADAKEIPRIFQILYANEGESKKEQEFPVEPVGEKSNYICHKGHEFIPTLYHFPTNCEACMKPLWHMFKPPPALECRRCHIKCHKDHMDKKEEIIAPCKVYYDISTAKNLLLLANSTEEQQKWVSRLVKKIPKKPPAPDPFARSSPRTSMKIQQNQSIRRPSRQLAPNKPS

SMILES: O=C(C1CC(F)(F)C1)N1Cc2ccc(-c3ncc(F)c(Nc4ccc5c(=O)[nH]ncc5c4)n3)cc2C1 [C12, 6-((2-(2-(3,3-difluoroo-cyclobutane-1-carbonyl)isoindolin-5-yl)-5-fluoro-pyrimidin-4-yl)amino) phthalazin-1(2H)-one]
- IC50 (ROCK1): > 10 µM
- IC50 (ROCK2): 0.017 µM

SMILES: CC(CC(=O)N1CCc2sc(-c3nccc(Nc4ccc5c(=O)[nH]ccc5c4)n3)cc2C1)C(F)(F)F (centres unmarked) [C49, 6-((2-(5-(4,4,4-trifluoro-3-methylbutanoyl)-4,5,6,7-tetrahydrothieno[3,2-c]pyridin-2-yl)pyrimidin-4-yl)amino)isoquinolin-1(2H)-one]
- IC50 (ROCK1): > 10 µM
- IC50 (ROCK2): 0.007 µM

SMILES: O=C1NCCc2cc(Nc3nc(-c4ccc5c(c4)CN(C(=O)N4CCC(F)(F)CC4)C5)ncc3F)ccc21 [C41, 6-((2-(2-(4,4-difluoro-piperidine-1-carbonyl)isoindolin-5-yl)-5-fluoro-pyrimidin-4-yl)amino)-3,4-dihydro-isoquinolin-1(2H)-one]
- IC50 (ROCK1): > 10 µM
- IC50 (ROCK2): 0.151 µM

SMILES: Cn1c(C(=O)N2CC(F)(F)C2)cc2ccc(-c3nccc(Nc4ccc5c(N)nccc5c4)n3)cc21 [C38, (6-(4-((1-aminoisoquinolin-6-yl)amino)pyrimidin-2-yl)-1-methyl-1H-indol-2-yl)(3,3-difluoroazetidin-1-yl)methanone]
- IC50 (ROCK1): > 10 µM
- IC50 (ROCK2): 0.264 µM

SMILES: CC(C)(C)CC(=O)N1Cc2ccc(-c3ncc(F)c(Nc4ccc5c(=O)[nH]ccc5c4)n3)cc2C1 [C51, 6-((2-(2-(3,3-dimethyl-butanoyl)isoindolin-5-yl)-5-fluoro-pyrimidin-4-yl)amino) isoquinolin-1(2H)-one]
- IC50 (ROCK1): > 10 µM
- IC50 (ROCK2): 0.053 µM

SMILES: CC(OC(=O)N1CCc2sc(-c3ncc(F)c(Nc4ccc5c(=O)[nH]ccc5c4)n3)cc2C1)C(F)(F)F (centres unmarked) [C46, 1,1,1-trifluoropropan-2-yl 2-(5-fluoro-4-((1-oxo-1,2-dihydroisoquinolin-6-yl)amino)pyrimidin-2-yl)-6,7-dihydrothieno[3,2-c]pyridine-5(4H)-carboxylate]
- IC50 (ROCK1): > 10 µM
- IC50 (ROCK2): 0.021 µM

SMILES: O=C(c1cc2ccc(-c3ncc(F)c(Nc4ccc5c(=O)[nH]ccc5c4)n3)cc2[nH]1)N1CC(F)(F)C1 [C9, 6-((2-(2-(3,3-difluoroazetidine-1-carbonyl)-1H-indol-6-yl)-5-fluoropyrimidin-4-yl)amino)isoquinolin-1(2H)-one]
- IC50 (ROCK1): > 10 µM
- IC50 (ROCK2): 0.004 µM

SMILES: CC(C)(CC(=O)N1Cc2ccc(-c3ncc(F)c(Nc4ccc5c(c4)CCNC5=O)n3)cc2C1)C(F)(F)F [C82, 6-((5-fluoro-2-(2-(4,4,4-trifluoro-3,3-dimethyl-butanoyl)isoindolin-5-yl)pyrimidin-4-yl)amino)-3,4-dihydro-isoquinolin-1(2H)-one]
- IC50 (ROCK1): > 10 µM
- IC50 (ROCK2): 0.129 µM

SMILES: O=C(OC1CC(F)(F)C1)N1CCc2cc(-c3ncc(F)c(Nc4ccc5c(=O)[nH]ccc5c4)n3)ccc21 [C16]
- IC50 (ROCK1): > 10 µM
- IC50 (ROCK2): 0.019 µM

SMILES: CC(CC(=O)N1Cc2ccc(-c3nccc(Nc4ccc5c(=O)[nH]ccc5c4)n3)cc2C1)C(F)(F)F (centres unmarked) [C48, 6-((2-(2-(4,4,4-trifluoro-3-methyl-butanoyl)isoindolin-5-yl)pyrimidin-4-yl)amino) isoquinolin-1(2H)-one]
- IC50 (ROCK1): > 10 µM
- IC50 (ROCK2): 0.013 µM

SMILES: O=C(C1CCC(F)(F)CC1)N1Cc2ccc(-c3ncc(F)c(Nc4ccc5c(=O)[nH]ccc5c4)n3)cc2C1 [C13, 6-((2-(2-(4,4-difluorocyclohexane-1-carbonyl)isoindolin-5-yl)-5-fluoropyrimidin-4-yl)amino)isoquinolin-1(2H)-one]
- IC50 (ROCK1): > 10 µM
- IC50 (ROCK2): 0.038 µM

SMILES: CC(C)(C)OC(=O)N1CCc2cc(-c3ncc(F)c(Nc4ccc5c(=O)[nH]ccc5c4)n3)ccc2C1 [C24, tert-butyl 6-(5-fluoro-4-((1-oxo-1,2-dihydro-isoquinolin-6-yl)amino)pyrimidin-2-yl)-3,4-dihydro-isoquinolin-2(1H)-carboxylate]
- IC50 (ROCK1): > 10 µM
- IC50 (ROCK2): 0.222 µM

SMILES: CC(CC(=O)N1CCc2sc(-c3ncc(F)c(Nc4ccc5c(=O)[nH]ccc5c4)n3)cc2C1)C(F)(F)F (centres unmarked) [C47, 6-((5-fluoro-2-(5-(4,4,4-trifluoro-3-methylbutanoyl)-4,5,6,7-tetrahydrothieno[3,2-c]pyridin-2-yl)pyrimidin-4-yl)amino)isoquinolin-1(2H)-one]
- IC50 (ROCK1): > 10 µM
- IC50 (ROCK2): 0.015 µM

SMILES: CC(CC(=O)N1CCc2cc(-c3ncc(F)c(Nc4ccc5c(=O)[nH]ccc5c4)n3)ccc21)C(F)(F)F (centres unmarked) [C71, 6-((5-fluoro-2-(1-(4,4,4-trifluoro-3-methyl-butanoyl)indolin-5-yl)pyrimidin-4-yl)amino) isoquinolin-1(2H)-one]
- IC50 (ROCK1): > 10 µM
- IC50 (ROCK2): 0.025 µM

SMILES: CC(C)(C)CC(=O)N1Cc2ccc(-c3nccc(Nc4ccc5c(=O)[nH]ccc5c4)n3)cc2C1 [C56, 6-((2-(2-(3,3-dimethyl-butanoyl)isoindolin-5-yl)pryimidin-4-yl)amino) isoquinolin-1(2H)-one]
- IC50 (ROCK1): > 10 µM
- IC50 (ROCK2): 0.024 µM

SMILES: O=C1NCCc2cc(Nc3nc(-c4cc5c(s4)CCN(C(=O)OC(C(F)(F)F)C(F)(F)F)C5)ncc3F)ccc21 [C61, 1,1,1,3,3,3-hexafluoropropan-2-yl 2-(5-fluoro-4-((1-oxo-1,2,3,4-tetrahydroisoquinolin-6-yl)amino)pyrimidin-2-yl)-6,7-dihydrothieno[3,2-c]pyridine-5(4H)-carboxylate]
- IC50 (ROCK1): > 10 µM
- IC50 (ROCK2): 0.17 µM

SMILES: CC(CC(=O)N1Cc2ccc(-c3ncc(F)c(Nc4ccc5c(=O)[nH]ccc5c4)n3)cc2C1)C(F)(F)F (centres unmarked) [C37, 6-((5-fluoro-2-(2-(4,4,4-trifluoro-3-methylbutanoyl)isoindolin-5-yl)pyrimidin-4-yl)amino)isoquinolin-1(2H)-one]
- IC50 (ROCK1): > 10 µM
- IC50 (ROCK2): 0.117 µM

SMILES: O=C(CCC(F)(F)F)N1CCc2cc(-c3ncc(F)c(Nc4ccc5c(=O)[nH]ccc5c4)n3)ccc21 [C70, 6-((5-fluoro-2-(1-(4,4,4-trifluoro-butanoyl)indolin-5-yl)pyrimidin-4-yl)amino) isoquinolin-1(2H)-one]
- IC50 (ROCK1): > 10 µM
- IC50 (ROCK2): 0.015 µM

SMILES: O=C1NCCc2cc(Nc3nc(-c4ccc5c(c4)CN(C(=O)CCC(F)(F)F)C5)ncc3F)ccc21 [C64, 6-((5-fluoro-2-(2-(4,4,4-trifluoro-butanoyl)isoindolin-5-yl)pyrimidin-4-yl)amino)-3,4-dihydro-isoquinolin-1(2H)-one]
- IC50 (ROCK1): > 10 µM
- IC50 (ROCK2): 0.109 µM

SMILES: O=C(OC1CC(F)(F)C1)N1CCc2cc(-c3nccc(Nc4ccc5c(=O)[nH]ccc5c4)n3)ccc2C1 [C25, 3,3-difluoro-cyclobutyl 6-(4-((1-oxo-1,2-dihydro-isoquinolin-6-yl)amino)pyrimidin-2-yl)-3,4-dihydro-isoquinolin-2(1H)-carboxylate]
- IC50 (ROCK1): > 10 µM
- IC50 (ROCK2): 0.045 µM

SMILES: O=C1NCc2cc(Nc3nc(-c4ccc5c(c4)CN(C(=O)OC4CC(F)(F)C4)C5)ncc3F)ccc21 [C30, 3,3-difluoro-cyclobutyl 5-(5-fluoro-4-((1-oxo-isoindolin-5-yl)amino)pyrimidin-2-yl) isoindoline-2-carboxylate]
- IC50 (ROCK1): > 10 µM
- IC50 (ROCK2): 0.216 µM

SMILES: CC(OC(=O)N1CCc2cc(-c3ncc(F)c(Nc4ccc5c(=O)[nH]ccc5c4)n3)ccc21)C(F)(F)F (centres unmarked) [C73, 1,1,1-trifluoro-propan-2-yl 5-(5-fluoro-4-((1-oxo-1,2-dihydro-isoquinolin-6-yl)amino)pyrimidin-2-yl) indoline-1-carboxylate]
- IC50 (ROCK1): > 10 µM
- IC50 (ROCK2): 0.078 µM

SMILES: O=C(CCC(F)(F)F)N1CCc2sc(-c3ncc(F)c(Nc4ccc5c(=O)[nH]ccc5c4)n3)cc2C1 [C68, 6-((5-fluoro-2-(5-(4,4,4-trifluorobutanoyl)-4,5,6,7-tetrahydrothieno[3,2-c]pyridin-2-yl)pyrimidin-4-yl)amino)isoquinolin-1(2H)-one]
- IC50 (ROCK1): > 10 µM
- IC50 (ROCK2): 0.009 µM

SMILES: O=C(C1CC(F)(F)C1)N1Cc2ccc(-c3ncc(F)c(Nc4ccc5c(=O)[nH]ccc5c4)n3)cc2C1 [C8, 6-((2-(2-(3,3-difluoroo-cyclobutane-l-carbonyl)isoindolin-5-yl)-5-fluoro-pyrimidin-4-yl)amino) isoquinolin-1(2H)-one]
- IC50 (ROCK1): > 10 µM
- IC50 (ROCK2): 0.016 µM

SMILES: O=C(C1CC(F)(F)C1)N1Cc2ccc(-c3ncc(F)c(Nc4ccc5c(=O)[nH]cnc5c4)n3)cc2C1 [C6, 7-((2-(2-(3,3-difluoroo-cyclobutane-1-carbonyl)isoindolin-5-yl)-5-fluoro-pyrimidin-4-yl)amino) quinazolin-4(3H)-one]
- IC50 (ROCK1): > 10 µM
- IC50 (ROCK2): 0.076 µM
